# Laboratory results published in the Kinase Knowledgebase extract (Sharma et al. 2016).
# Molecular target: CDK2 (human) (UniProt P24941)
# Assay: Enzyme Assay
row,Compound,IC50 [µM]
1,Cc1[nH]c(-c2n[nH]cc2NC(=O)c2onc3ccccc23)nc1C(F)(F)F,< 1
2,Cc1[nH]c(-c2n[nH]cc2NC(=O)c2ccc3c(c2)OCC3)nc1C(F)(F)F,< 1
3,COc1ccc(S(C)(=O)=O)cc1C(=O)Nc1c[nH]nc1-c1nc(C(F)(F)F)c(C)[nH]1,< 1
4,Cc1[nH]c(-c2n[nH]cc2NC(=O)c2ccco2)nc1C(F)(F)F,< 1
5,Cc1[nH]c(-c2n[nH]cc2NC(=O)CC2CC2)nc1C(F)(F)F,< 1
6,Cc1[nH]c(-c2n[nH]cc2NC(=O)C(C#N)C2CC2)nc1C(F)(F)F (stereo not drawn),< 1
7,Cc1cc(C(=O)Nc2c[nH]nc2-c2nc(C(F)(F)F)c(C)[nH]2)no1,< 1
8,Cc1[nH]c(-c2n[nH]cc2NC(=O)c2c(F)cc(F)cc2F)nc1C(F)(F)F,< 1
9,Cc1[nH]c(-c2n[nH]cc2NC(=O)c2cc(CN3CCOCC3)c(C)o2)nc1C(F)(F)F,< 1
10,CCOc1ccccc1C(=O)Nc1c[nH]nc1-c1nc(C(F)(F)F)c(C)[nH]1,< 1
11,COc1ccc(F)cc1C(=O)Nc1c[nH]nc1-c1nc(C(F)(F)F)c(C)[nH]1,< 1
12,Cc1[nH]c(-c2n[nH]cc2NC(=O)c2cccc3c2OCC3)nc1C(F)(F)F,< 1
13,COc1cccc(Cl)c1C(=O)Nc1c[nH]nc1-c1nc(C(F)(F)F)c(C)[nH]1,< 1
